Assay results as given in patent US6846810B2, “Antiviral nucleoside derivatives” (Roche Palo Alto LLC, priority 2002, dated 2005).

Tested on: not given
Assay: not given
Conditions: not given

melting point	Structure (SMILES)
71 to 103.9 °C	CCCCCCOC(=O)OC[C@@]1(N=[N+]=[N-])O[C@H](n2ccc(N)nc2=O)[C@H](O)[C@@H]1O.O=C(O)C(F)(F)F
180.6 to 181.2 °C	CCCCCCCCCC(=O)OC[C@@]1(N=[N+]=[N-])O[C@H](n2ccc(N)nc2=O)[C@H](O)[C@@H]1O.Cl
154.6 to 155.6 °C	CCCC(=O)O[C@H]1[C@@H](n2ccc(N)nc2=O)O[C@@](CO)(N=[N+]=[N-])[C@H]1OC(=O)CCC.Cl
115.3 to 120.1 °C	CCCCC(=O)O[C@H]1[C@@H](n2ccc(N)nc2=O)O[C@@](CO)(N=[N+]=[N-])[C@H]1OC(=O)CCCC.CS(=O)(=O)O
108 to 114 °C	CC(C)(C)C(=O)Nc1ccn([C@@H]2O[C@@](CO)(N=[N+]=[N-])[C@@H](O)[C@H]2O)c(=O)n1
62.1 to 87.7 °C	CCCCC(=O)OC[C@@]1(N=[N+]=[N-])O[C@H](n2ccc(N)nc2=O)[C@H](O)[C@@H]1O.Cl
166.2 to 168.1 °C	Cl.[N-]=[N+]=N[C@]1(CO)O[C@H](n2ccc(N)nc2=O)[C@H](OC(=O)c2ccccc2)[C@@H]1OC(=O)c1ccccc1
75 to 77.7 °C	CCCCCCCCCCOC(=O)OC[C@@]1(N=[N+]=[N-])O[C@H](n2ccc(N)nc2=O)[C@H](O)[C@@H]1O.O=C(O)C(F)(F)F [Compound 86, (S)-1-((3R,4S,5R)-5-Azido-5-decyloxycarbonyloxymethyl-3,4-dihydroxy-tetrahydro-furan-2-yl)-2-oxo-1,2-dihydro-pyrimidin-4-yl-ammonium; trifluoro-acetate]
134.4 to 136 °C	CCCCCCOC(=O)Nc1ccn([C@H]2O[C@@](CO)(N=[N+]=[N-])[C@@H](O)[C@H]2O)c(=O)n1
77 to 80.1 °C	CC(=O)Nc1ccn([C@@H]2O[C@@](COC(C)=O)(N=[N+]=[N-])[C@@H](OC(C)=O)[C@H]2OC(C)=O)c(=O)n1
86.5 to 94 °C	CCCCOC(=O)Nc1ccn([C@@H]2O[C@@](CO)(N=[N+]=[N-])[C@@H](O)[C@H]2O)c(=O)n1
108.1 to 118.2 °C	[N-]=[N+]=N[C@]1(CO)O[C@@H](n2ccc(NC(=O)c3ccccc3)nc2=O)[C@H](O)[C@@H]1O
88 to 90.9 °C	CC(=O)OC[C@@]1(N=[N+]=[N-])O[C@H](n2ccc(N)nc2=O)[C@H](OC(C)=O)[C@@H]1OC(C)=O.Cl
142 to 142.8 °C	CC(C)CC(=O)OC[C@@]1(N=[N+]=[N-])O[C@H](n2ccc(N)nc2=O)[C@H](OC(=O)CC(C)C)[C@@H]1OC(=O)CC(C)C.Cl
154 to 155 °C	CCCCCCCCCCCC(=O)OC[C@@]1(N=[N+]=[N-])O[C@H](n2ccc(N)nc2=O)[C@H](O)[C@@H]1O.Cl
124.3 to 128.4 °C	CCCCC(=O)O[C@H]1[C@@H](n2ccc(N)nc2=O)O[C@@](CO)(N=[N+]=[N-])[C@H]1OC(=O)CCCC.Cl
149 to 153 °C	CCC(=O)OC[C@@]1(N=[N+]=[N-])O[C@H](n2ccc(N)nc2=O)[C@H](OC(=O)CC)[C@@H]1OC(=O)CC.CS(=O)(=O)O
75.9 to 79.9 °C	CCC(=O)OC[C@@]1(N=[N+]=[N-])O[C@@H](n2ccc(N)nc2=O)[C@H](OC(=O)CC)[C@@H]1OC(=O)CC
72 to 75.2 °C	CCC(=O)OC[C@@]1(N=[N+]=[N-])O[C@H](n2ccc(N)nc2=O)[C@H](OC(=O)CC)[C@@H]1OC(=O)CC.Cl
127.3 to 128.6 °C	CCCCCC(=O)O[C@H]1[C@@H](n2ccc(N)nc2=O)O[C@@](CO)(N=[N+]=[N-])[C@H]1OC(=O)CCCCC.CS(=O)(=O)O
191.1 to 191.9 °C	CC(C)C(=O)O[C@H]1[C@@H](n2ccc(N)nc2=O)O[C@@](CO)(N=[N+]=[N-])[C@H]1OC(=O)C(C)C.Cl
70.5 to 81 °C	CCCCCCCCOC(=O)OC[C@@]1(N=[N+]=[N-])O[C@H](n2ccc(N)nc2=O)[C@H](O)[C@@H]1O.O=C(O)C(F)(F)F
141.1 to 141.8 °C	COC(=O)Nc1ccn([C@H]2O[C@@](CO)(N=[N+]=[N-])[C@@H](O)[C@H]2O)c(=O)n1

Second part, the compound before the results:

Structure (SMILES)	melting point
CCCC(=O)OC[C@@]1(N=[N+]=[N-])O[C@H](n2ccc(N)nc2=O)[C@H](OC(=O)CCC)[C@@H]1OC(=O)CCC.Cl	167.5 to 170.6 °C
CC(C)(C)C(=O)Nc1ccn([C@@H]2O[C@@](COC(=O)C(C)(C)C)(N=[N+]=[N-])[C@@H](OC(=O)C(C)(C)C)[C@H]2OC(=O)C(C)(C)C)c(=O)n1 [Compound 5, 2,2-Dimethyl-propionic acid (2R,3S,4R,5R)-2-azido-5-[4-(2,2-dimethyl-propionylamino)-2-oxo-2H-pyrimidin-1-yl]-3,4-bis-(2,2-dimethyl-propionyloxy)-tetrahydro-furan-2-ylmethyl ester]	67.4 to 80 °C
CC(=O)Nc1ccn([C@@H]2O[C@@](CO)(N=[N+]=[N-])[C@@H](O)[C@H]2O)c(=O)n1	94 to 96.8 °C
Cl.[N-]=[N+]=N[C@]1(COC(=O)c2ccccc2)O[C@H](n2ccc(N)nc2=O)[C@H](OC(=O)c2ccccc2)[C@@H]1OC(=O)c1ccccc1	208.9 to 210.3 °C
CCC(=O)O[C@H]1[C@@H](n2ccc(N)nc2=O)O[C@@](CO)(N=[N+]=[N-])[C@H]1OC(=O)CC.Cl	194.6 to 198.2 °C
CCCCCCCCCOC(=O)OC[C@@]1(N=[N+]=[N-])O[C@H](n2ccc(N)nc2=O)[C@H](O)[C@@H]1O.Cl	174.7 to 176.1 °C
CCCC(=O)O[C@H]1[C@@H](n2ccc(N)nc2=O)O[C@@](CO)(N=[N+]=[N-])[C@H]1OC(=O)CCC.O=C(O)C(F)(F)F	91 to 94.9 °C
CC(C)(C)C(=O)OC[C@]1(N=[N+]=[N-])O[C@@H](n2ccc(N)nc2=O)[C@@H](OC(=O)C(C)(C)C)[C@H]1OC(=O)C(C)(C)C.Cl	136.2 to 140 °C
CCCCC(=O)OC[C@@]1(N=[N+]=[N-])O[C@H](n2ccc(N)nc2=O)[C@H](OC(=O)CCCC)[C@@H]1OC(=O)CCCC.Cl [Compound 46, (S)-1-((3R,4S,5R)-5-Azido-3,4-bis-pentanoyloxy-5-pentanoyloxymethyl-tetrahydro-furan-2-yl)-2-oxo-1,2-dihydro-pyrimidin-4-yl-ammonium; chloride]	72.9 to 74.7 °C
CCCCCCCCNC(=O)OC[C@@]1(N=[N+]=[N-])O[C@H](n2ccc(N)nc2=O)[C@H](O)[C@@H]1O.Cl	164.9 to 168.5 °C
Cl.[N-]=[N+]=N[C@]1(COC(=O)c2ccccc2)O[C@H](n2ccc(N)nc2=O)[C@H](O)[C@@H]1O	163 to 166.5 °C
Cc1ccc(C(=O)OC[C@@]2(N=[N+]=[N-])O[C@H](n3ccc(N)nc3=O)[C@H](O)[C@@H]2O)cc1.Cl	187 to 189 °C
CC(C)(C)OC(=O)Nc1ccn([C@@H]2O[C@@](CO)(N=[N+]=[N-])[C@@H](O)[C@H]2O)c(=O)n1	80 to 83.5 °C
CCCCCCCOC(=O)OC[C@@]1(N=[N+]=[N-])O[C@H](n2ccc(N)nc2=O)[C@H](O)[C@@H]1O.O=C(O)C(F)(F)F	90.9 to 94.6 °C
CCCCCCCCCCCCC(=O)OC[C@]1(N=[N+]=[N-])OC(n2ccc(N)nc2=O)[C@H](O)[C@@H]1O.Cl (some centres unmarked)	178.6 to 179.4 °C

Tested on: HCV replicon RNA (Renilla luciferase HCV replicon cells 2209-23)
Assay: Renilla luciferase assay (HCV replicon)
Assay type: cell-based, Hepatitis C virus
Conditions: Huh-7, 72 h; 2209-23 replicon cells (human hepatoma Huh7), three days incubation, 50% reduction of replicon level

Structure (SMILES)	IC50
CC(C)(C)C(=O)Nc1ccn([C@@H]2O[C@@](COC(=O)C(C)(C)C)(N=[N+]=[N-])[C@@H](OC(=O)C(C)(C)C)[C@H]2OC(=O)C(C)(C)C)c(=O)n1 [Compound 5, 2,2-Dimethyl-propionic acid (2R,3S,4R,5R)-2-azido-5-[4-(2,2-dimethyl-propionylamino)-2-oxo-2H-pyrimidin-1-yl]-3,4-bis-(2,2-dimethyl-propionyloxy)-tetrahydro-furan-2-ylmethyl ester]	5.33 µM
[N-]=[N+]=N[C@]1(COC(=O)c2ccccc2)O[C@@H](n2ccc(N)nc2=O)[C@H](OC(=O)c2ccccc2)[C@@H]1OC(=O)c1ccccc1 [Compound 25, Benzoic acid (2R,3S,4R,5R)-3,4-dibenzoyloxy-5-(4-amino-2-oxo-2H-pyrimidin-1-yl)-2-azido-tetrahydro-furan-2-ylmethyl ester]	2.47 µM
CC(C)C(N)C(=O)OC[C@@]1(N=[N+]=[N-])O[C@@H](n2ccc(N)nc2=O)[C@H](O)[C@@H]1O (stereo partly drawn) [Compound 18, 1-[(2R,3S,4R,5R)-5-(4-Amino-2-oxo-2H-pyrimidin-1-yl)-2-azido-3,4-dihydroxy-tetrahydro-furan-2-ylmethoxycarbonyl]-2-methyl-propyl-ammonium; chloride]	2.4 µM
